# Experimental data taken from patent US12631620B2, “Methods of generating organoids for high throughput screening of drugs” (Yissum Research Development Company of the Hebrew …, priority 2019, dated 2026).
# Where a name gives a salt, the structure may show the parent alone. Numbered stars: 1 amine (or outer) side, 2 acyl side, 3 side chain; on linkers, the order of the positions; unused ones are H or OH. Bridge positions count the residues as written; N and C are the ends. Square brackets hold non-standard residues; d marks the D form. Peptide text beside a SMILES is read from it. I, II: the chains in the order shown. Actinocin(9to1) = Cc1c2oc3c(C)ccc(C(=O)[*:1])c3nc-2c(C(=O)[*:2])c(N)c1=O; NMeV = CN[C@H](C(=O)O)C(C)C; Sar = CNCC(=O)O
# Test system: U87-MG spheroids
# Test: High throughput kinetic oxygen screen of FDA-approved anticancer drugs on U87-MG micro-tumors with embedded oxygen sensors, 384-well plate
# Assay type: cell-based, human
# Conditions: 5 μM; U87-MG cells embedded in collagen gel or basement membrane gel
# Method: In general, cells were kept under standard conditions in a humidified incubator at 37° C., under 5% CO2. U87-MG cells (obtained from the American Type Culture Collection (ATCC)) were cultured in Eagle's Minimum Essential Medium (EMEM) (ATCC® 30-2003™) supplemented with 15% (volume/volume) fetal bovine serum (FCS), 100 U/mL penicillin, and 100 μg/mL streptomycin (Sigma-Aldrich). Medium was changed every 2 days and cells were split every 5 days. Patient's specific glioblastoma derived cells (obtained from Cleveland clinic) were cultured in Neurobasal™ Medium (Trademark Serial number: 77137832) minus phenol red (Thermo-Fischer Scientific) supplemented with 1× (volume/volume) B27 minus Vitamin A (Thermo-Fischer Scientific), 10 ng/ml basic fibroblast growth factor (bFGF) 10 ng/ml EGF (epidermal growth factor) (PEPROTECH), 100 U/mL penicillin, 100 μg/mL streptomycin (Sigma-Aldrich) and L-Alanyl-L-Glutamine (Biological Industries). Medium was changed every 3 days and cells were split every 2-3 weeks. Rat retinal capillary endothelial cells (RCECs) were cultured in EGM™-2 Endothelial Cell Growth Medium-2 BulletKit™ (Lonza). Medium was changed every 3 days and cells were split every 6 days.
# For tumor organoid formation, cancer cells were cultured to reach the adequate number needed for a 384 well plate. Cells were trypsinized, counted, and centrifuged at 300 g for 5 minutes at 4° C. The pellet was then mixed with 5 mg CPOx-50-RuP oxygen-sensing beads (Colibri Photonics) and resuspended in 800 μl of ice-cold solution of collagen type I (BD Biosciences) or Matrigel® Basement Membrane Matrix, Growth Factor Reduced (GFR) (Corning) for a final seeding density of 25-50×10^6 cells/mL. In some cases, endothelial cells (RCECs) are used in the assembly of the tumor spheroids by mixing them with same or double the number of tumor cells (i.e. 1:1 or 1:2 ratios) before centrifugation. The 800 μl mix was then equally distributed into a PCR strip (100 μl/tube) and passed to a Biomek i5 liquid handling workstation (Beckman Coulter) for the formation of uniformly-sized organoid in 384-well plate. The plate was then incubated for 30 minutes at 37° C., and the medium was replaced using the liquid handing workstation. Medium was changed every two days for 4 days before adding the drugs (5 μM of NIH chemotherapeutic drugs in triplicates per drug).
# On the day of measurement, medium was changed 2-12 hours before drug induction, based on the oxygen consumption of the microtissue (e.g., U87-MG spheroids are given 6 hours after media change before drugs are induced).
# After applying the drugs, the plate was placed on the DynamiX bioanalyzer (Tissue Dynamics). Organoids positions were detected optically. Oxygen content was monitored at a predetermined rate of 1 to 10 seconds of measurement at each location (e.g. Matrigel®/U87-MG spheroids treated with a set of FDA-approved anticancer drugs to enable cancer research was measured via phosphorescence for 4 seconds/well). Each cycle takes between 10-120 minutes, dependent on sampling rate and well number (e.g., Matrigel®/U87-MG spheroids 384 well at a sampling rate of 4 measurements/well take about 60 minutes for each cycle). […]
# Further validation was usually done by multiple independent repeats (e.g. Matrigel®/U87-MG spheroids treated with a set of FDA-approved anticancer drugs to enable cancer research [AOD IX] were assessed in 3 independent experiments). […]
row,Compound,"type of response in kinetic oxygen measurement (positive, false negative, false positive)"
1,CC(C)C[C@H](NC(=O)[C@H](Cc1ccccc1)NC(=O)c1cnccn1)B(O)O [Bortezomib],positive
2,"Cc1c2oc3c(C)ccc(C(=O)N[C@@H]4C(=O)N[C@H](C(C)C)C(=O)N5CCC[C@H]5C(=O)N(C)CC(=O)N(C)[C@@H](C(C)C)C(=O)O[C@@H]4C)c3nc-2c(C(=O)N[C@@H]2C(=O)N[C@H](C(C)C)C(=O)N3CCC[C@H]3C(=O)N(C)CC(=O)N(C)[C@@H](C(C)C)C(=O)O[C@@H]2C)c(N)c1=O [Dactinomycin] (I: T[dV]P[Sar][NMeV] / II: T[dV]P[Sar][NMeV]; ester I:1-I:C, II:1-II:C; linker I:N-II:N via Actinocin(9to1))",false positive
3,COc1cccc2c1C(=O)c1c(O)c3c(c(O)c1C2=O)C[C@@](O)(C(C)=O)C[C@@H]3O[C@H]1C[C@H](N)[C@H](O)[C@H](C)O1 [Daunorubicin hydrochloride],false negative
4,Cc1c(C(=O)Nc2ccc(N3C[C@@H](C)O[C@@H](C)C3)nc2)cccc1-c1ccc(OC(F)(F)F)cc1 [Erismodegib],false positive
5,COC(=O)C[C@](O)(CCCC(C)(C)O)C(=O)O[C@@H]1C(OC)=C[C@]23CCCN2CCc2cc4c(cc2[C@H]13)OCO4 [Omacetaxine mepesuccinate],positive
